{
  "source": "ChEMBL document CHEMBL1136845",
  "about": "“Synthesis, biological activity and tubulin binding poses of 1-deoxy-9-(R)-dihydrotaxane analogs” (Bioorg Med Chem Lett, 2009)",
  "key": {"[1]": {"tested_on": "A549", "experiment": "Cytotoxicity against human A549 cells after 72 hrs by MTT assay", "format": "functional, cell-based", "details": "A549, 72 h"}, "[2]": {"tested_on": "A2780", "experiment": "Cytotoxicity against human A2780 cells after 72 hrs by MTT assay", "format": "functional, cell-based", "details": "A2780, 72 h"}, "[3]": {"experiment": "Inhibition of GTP-[…] tubulin polymerization"}},
  "data": [
    {"smiles": "CC(=O)O[C@@]12CO[C@@H]1C[C@H](O)[C@]1(C)[C@@H]2[C@H](OC(=O)c2ccccc2)[C@@H]2C[C@H](OC(=O)[C@H](O)[C@@H](NC(=O)c3ccccc3)c3ccccc3)C(C)=C([C@@H](O)[C@@H]1O)C2(C)C", "values": [
      {"measurement": "IC50", "setting": "[1]", "value": 0.18, "unit": "ng/mL"},
      {"measurement": "IC50", "setting": "[2]", "value": 0.11, "unit": "ng/mL"},
      {"measurement": "ED50", "setting": "[3]", "value": 1900, "unit": "nM"}
    ]},
    {"smiles": "CC(=O)O[C@H]1C(=O)[C@@]2(C)[C@H]([C@H](OC(=O)c3ccccc3)[C@]3(O)C[C@H](OC(=O)[C@H](O)[C@@H](NC(=O)c4ccccc4)c4ccccc4)C(C)=C1C3(C)C)[C@]1(OC(C)=O)CO[C@@H]1C[C@@H]2O", "note": "[PACLITAXEL]", "values": [
      {"measurement": "IC50", "setting": "[1]", "value": 0.29, "unit": "ng/mL"},
      {"measurement": "IC50", "setting": "[2]", "value": 0.13, "unit": "ng/mL"},
      {"measurement": "ED50", "setting": "[3]", "value": 520, "unit": "nM"}
    ]},
    {"smiles": "CC(=O)O[C@@]12CO[C@@H]1C[C@H](O)[C@]1(C)[C@@H]2[C@H](OC(=O)c2ccccc2)[C@@H]2C[C@H](OC(=O)[C@H](O)[C@@H](NC(=O)c3ccccc3)c3ccccc3)C(C)=C([C@H]3OC(C)(C)O[C@@H]31)C2(C)C", "values": [
      {"measurement": "IC50", "setting": "[1]", "value": 2.87, "unit": "ng/mL"},
      {"measurement": "IC50", "setting": "[2]", "value": 1.54, "unit": "ng/mL"},
      {"measurement": "ED50", "setting": "[3]", "value": 5200, "unit": "nM"}
    ]}
  ]
}
